Patent US20090305338A1, “Plant cell lines established from the medicinal plant veratrum californicum” (priority 2006, published 2009)

How the values were obtained:
suspension line B = assay: Growth optimization of the suspension cell line B; assay type: cell-based, Veratrum californicum; details: AA medium, 4 mg/l
Experimental: Growth of suspension line B on L2-medium with 2,4-D (2.5 mg/l) was further optimized. About 3 g (fw) of cells were transferred to an Erlenmeyer flask containing 50 ml liquid AA medium (with 2,4-D and NAA at levels of 2, 4 and 7 mg/l or without hormones), and incubated in the light (light intensity about 30-40 […] Osram cool white/Osram fluora, 1:1 on watt basis) on a rotary shaker (130 rpm) at 25° C. The volume of the liquid medium was added up to 100 ml after the second subculture. The suspensions were sub-cultured at three weeks intervals by replacing about half of the old culture with an equal volume of fresh medium.

[1] = system: Veratrum californicum embryos; assay: Embryogenic callus induction from mature embryos (% of embryogenesis); assay type: cell-based
Experimental: (§1) Seeds of Veratrum californicum Durand were peeled, rinsed with 94% ethanol and surface sterilized with 1% (v/v) sodium hypochlorite supplemented with a few drops of Tween20 for 10 minutes, and finally rinsed three times with sterile water. Seeds were allowed to germinate for 2 days at 22° C. in the dark on moist filter paper. Embryos were excised and cultured on MS medium (11) solidified with gelrite (3% w/v) and supplemented with 1 mg/l kinetin and 1 mg/l NAA in the dark at 22° C. Produced calli were subcultured to fresh plates in two to three weeks intervals. After four months of culture calli were transferred to L2-medium (12) solidified with gelrite (3% w/v) and supplemented with 2.5 mg/l 2,4-D and were subsequentially subcultured to fresh plates at one month intervals. Embryogenic callus cultures from isolated V. californicum embryos were induced by the following media: Basal media MS (11), R2M (13), L2 (12), modified MS medium (mMS, consisting of MS basic salts and vitamins, 146 mg/l glutamine, 200 mg/l casein hydrolysate) and AA (14) supplemented with different hormones (picloram, NAA, 2,4-D, dicamba) at three levels (2, 4 and 7 mg/l) all solidified with gelrite (3% w/v). The cultures were kept in the dark, at 25° C. and embryogenic calli were subcultured at one month intervals.
Frequencies of embryos producing embryogenic calli and frequencies of regenerated green and albino plants were recorded. Oxidative browning percentages of embryos were calculated. Completely randomized designs (CRD) were used in the experiments. Each Petri-dish with 20 embryos was considered an experimental unit and each treatment contained five replicates. Data analyses with two treatment levels were carried out by t-test, and with more than two treatment levels by the ANOVA procedure. Multi-range comparisons were performed by the LSD test.

[2] = system: Veratrum californicum embryos; assay: as above; assay type: cell-based; details: medium 502; data from 5 replicates
[3] = system: suspension lines A, B and C; assay: Cryopreservation of the cell suspension lines A, B and C; assay type: cell-based, Veratrum californicum; details: 5% (v/v), after osmotic dehydration
Experimental: The suspension lines A, B and C were cryopreserved by using a Kryo10 device (Planer Biomed). The suspensions were subcultured 4 to 5 days prior to the start of the cryopreservation experiment. A dehydration procedure as follows was applied: I) Sugar alcohol concentration of the suspension was adjusted to 0.2 M by adding five times small aliquots of 4 M sorbitol during a period of 30 minutes. After sorbitol additions, the suspensions were incubated under normal growth conditions for 24 hours (in the dark, 25° C., on a rotary shaker (90 rpm)). II) Sugar alcohol concentration was adjusted to 0.4 M by 4 M sorbitol and incubations were carried out as in step I). The dehydrated suspensions were transferred to ice and DMSO was added to reach 5% (v/v) concentration. Cell:medium ratio was adjusted to 1:2 and suspensions were packed into ampulles. Protectant-treated suspensions were kept on ice for a period of 100 minutes. A freezing protocol as follows was applied: I) A rate of 10° C./min to reach 0° C. was followed by II) incubation at 0° C. for 20 minutes. The freezing was finalized by using III) a rate of 1° C./min to reach −40° C. and then IV) samples were immersed in liquid nitrogen. Thawing of cryopreserved samples was carried out by immersing the suspension ampulles straight from liquid nitrogen to a 40° C. water bath for 2 minutes. […] Cell division and growth of the cultures were monitored.

[4] = system: Veratrum californicum embryos; assay: Phenolic exudation / oxidative browning during embryo culture; assay type: cell-based; details: mMS medium containing picloram
Experimental: as §1, with “The cultures were kept in the dark, at 25° C. and embryogenic calli were subcultured at one month intervals.” left out
Frequencies of embryos producing embryogenic calli and frequencies of regenerated green and albino plants were recorded. Oxidative browning percentages of embryos were calculated. […]

[5] = system: Sonic hedgehog signal transduction; details: cited from earlier work
sheep = details: ewes consuming Veratrum during early pregnancy; cited from earlier work
[6] = system: Veratrum californicum plant suspension cell lines; assay: Elicitation of steroid alkaloid production in plant suspension cell lines; assay type: cell-based
Experimental: 100 μl 0.5% SDS solution and 50 μl 25% NH4OH was added to 100 mg FW frozen cell powder. After mixing 1 ml toluene was added and the solution was extracted for 10 min in an ultrasonic bath. Following centrifugation the organic layer was collected and the sample residue was twice re-extracted with another 1 ml toluene. The organic phases were combined and the solvent was evaporated to dryness. The residue was then quantitatively transferred to a GC vial and re-dissolved in 80 μl CH2Cl2. An aliquot was directly injected into the GC.
GC separation was performed using an Agilent 6890 system and was monitored with an Agilent 5973 Network MS Quadropole. The selected ion mode function was applied to record the characteristic molecular ions (cyclopamine: 124, 396; jervine: 110, 124). Within a set of samples the response values for the specific ions were used to compare relative levels of alkaloids. A mixture of commercially available reference compounds (cyclopamine and jervine) was routinely analyzed for comparison of retention times and fragmentation.

[7] = medium AA, data from 5 replicates
[8] = medium MS, data from 5 replicates
[9] = medium R2M, data from 5 replicates
[10] = medium mMS, data from 5 replicates
[11] = growth regulator 2 mg/l, average over mMS, R2M, AA
[12] = growth regulator 2 mg/l, medium AA
[13] = growth regulator 2 mg/l, medium R2M
[14] = growth regulator 2 mg/l, medium mMS
[15] = growth regulator 4 mg/l, average over mMS, R2M, AA
[16] = growth regulator 4 mg/l, medium AA
[17] = growth regulator 4 mg/l, medium R2M
[18] = growth regulator 4 mg/l, medium mMS
[19] = growth regulator 7 mg/l, average over mMS, R2M, AA
[20] = growth regulator 7 mg/l, medium AA
[21] = growth regulator 7 mg/l, medium R2M
[22] = growth regulator 7 mg/l, medium mMS

In the case of `O=C(O)COc1ccc(Cl)cc1Cl` [2,4-D], the “growth of the suspension line B” value (suspension line B) is reported as “improved the growth”, the “% of embryogenesis, Average” value ([1]; average over the five media) is reported as 52.33c % and the “% of embryogenesis” value [1, 7] is reported as 43.43%. For the same molecule, the “% of embryogenesis” value [1, 8] was 50.52%, the “% of embryogenesis” value [1, 9] was 58.85% and the “% of embryogenesis” value [1, 10] was 55.32%. The “% of embryogenesis” value [2] was 53.41%.

In the case of `C[S+](C)[O-]` [DMSO], the cryoprotectant effect [3] is reported as “sufficient as a cryoprotectant”.

For `COc1c(Cl)ccc(Cl)c1C(=O)O` [Dicamba, dicamba], the “% of embryogenesis, Average” value ([1]; average over the five media) was 55.44bc %, the “% of embryogenesis” value [1, 7] was 51.24% and the “% of embryogenesis” value [1, 8] was 50.90%. The “% of embryogenesis” value [1, 9] was 58.67%, the “% of embryogenesis” value [1, 10] was 60.79% and the “% of embryogenesis” value [2] was 55.61%.

For `O=C(O)Cc1cccc2ccccc12` [NAA, 1-naphthaleneacetic acid], the “growth of the suspension line B” value (suspension line B) was “improved the growth”, the “% of embryogenesis, Average” value ([1]; average over the five media) was 67.70a % and the “% of embryogenesis, Average” value [1, 11] was 59.35b %. The “% of embryogenesis” value [1, 12] was 48.95%, the “% of embryogenesis” value [1, 13] was 63.75% and the “% of embryogenesis” value [1, 14] was 65.35%. The “% of embryogenesis, Average” value [1, 15] was 70.74a %, the “% of embryogenesis” value [1, 16] was 64.21% and the “% of embryogenesis” value [1, 17] was 74.32%. For the same molecule, the “% of embryogenesis” value [1, 18] was 73.67%, the “% of embryogenesis, Average” value [1, 19] was 72.15a % and the “% of embryogenesis” value [1, 20] was 68.06%. For the same molecule, the “% of embryogenesis” value [1, 21] was 73.01%, the “% of embryogenesis” value [1, 22] was 75.37% and the “% of embryogenesis” value [1, 7] was 62.04%. For the same molecule, the “% of embryogenesis” value [1, 8] was 62.62%, the “% of embryogenesis” value [1, 9] was 73.95% and the “% of embryogenesis” value [1, 10] was 74.93%. The “% of embryogenesis” value [2] was 64.98%.

In the case of `Nc1c(Cl)c(Cl)nc(C(=O)O)c1Cl` [Picloram, picloram], the “percentage of embryos producing phenolic exudates” value [4] is reported as 18.9%, the “% of embryogenesis, Average” value ([1]; average over the five media) is reported as 70.82a % and the “% of embryogenesis, Average” value [1, 11] is reported as 63.24B %. The “% of embryogenesis” value [1, 12] was 51.43%, the “% of embryogenesis” value [1, 13] was 68.53% and the “% of embryogenesis” value [1, 14] was 69.76%. For the same molecule, the “% of embryogenesis, Average” value [1, 15] was 72.96A %, the “% of embryogenesis” value [1, 16] was 62.59% and the “% of embryogenesis” value [1, 17] was 75.73%. For the same molecule, the “% of embryogenesis” value [1, 18] was 80.57%, the “% of embryogenesis, Average” value [1, 19] was 72.50A % and the “% of embryogenesis” value [1, 20] was 59.97%. For the same molecule, the “% of embryogenesis” value [1, 21] was 76.07%, the “% of embryogenesis” value [1, 22] was 81.46% and the “% of embryogenesis” value [1, 7] was 59.75%. The “% of embryogenesis” value [1, 8] was 69.32%, the “% of embryogenesis” value [1, 9] was 75.40% and the “% of embryogenesis” value [1, 10] was 81.33%. The “% of embryogenesis” value [2] was 68.32%.

For `CC1=C2C[C@H]3[C@@H](CC=C4C[C@@H](O)CC[C@@]43C)[C@@H]2CC[C@]12O[C@@H]1C[C@H](C)CN[C@H]1[C@H]2C` [cyclopamine], the “effect on Sonic hedgehog signal transduction” value [5] is given as “selectively blocks Sonic hedgehog signal transduction” and the teratogenicity (sheep) is given as “responsible teratogens”.

For `CC1=C2C(=O)[C@H]3[C@@H](CC=C4C[C@@H](O)CC[C@@]43C)[C@@H]2CC[C@]12O[C@@H]1C[C@H](C)CN[C@H]1[C@H]2C` [jervine], the teratogenicity (sheep) is listed as “responsible teratogens”.

For `CC/C=C\CC1C(=O)CCC1CC(=O)OC` (centres unmarked) [methyl-jasmonate, methyl jasmonate], the “production of cyclopamine and jervine upon elicitation” value [6] was “showed the production of cyclopamine and jervine”.
